Assay results taken from US9085561B2, “Cyclic urea- or lactam-substituted quinoxaline-type piperidines as ORL-1 modulators” (priority 2012, dated 2015).

Target: human CYP2D6 (Homo sapiens, UniProt P10635)
Test: Cytochrome P450 2D6 inhibition (dextromethorphan O-demethylation, pooled human hepatic microsome)

Sequence of human CYP2D6 (P10635 whole entry): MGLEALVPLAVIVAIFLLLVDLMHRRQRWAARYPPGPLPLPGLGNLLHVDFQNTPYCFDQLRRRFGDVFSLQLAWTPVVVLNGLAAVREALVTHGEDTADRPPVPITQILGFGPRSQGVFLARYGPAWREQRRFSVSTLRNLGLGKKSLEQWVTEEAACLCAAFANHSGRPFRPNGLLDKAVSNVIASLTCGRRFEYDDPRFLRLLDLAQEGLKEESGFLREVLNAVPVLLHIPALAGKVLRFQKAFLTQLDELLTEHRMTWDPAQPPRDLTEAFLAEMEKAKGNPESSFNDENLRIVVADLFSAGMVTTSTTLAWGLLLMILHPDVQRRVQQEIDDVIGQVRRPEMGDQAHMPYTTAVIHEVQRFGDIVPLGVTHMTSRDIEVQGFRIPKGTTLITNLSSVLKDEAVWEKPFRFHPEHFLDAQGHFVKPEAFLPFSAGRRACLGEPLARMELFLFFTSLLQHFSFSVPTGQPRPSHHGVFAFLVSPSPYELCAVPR

SMILES | IC50
Nc1nc(=O)n(-c2nc3ccccc3n([C@H]3C[C@H]4CCC[C@@H](C3)N4[C@H]3C[C@@H]4CCC[C@@H](C4)C3)c2=O)cc1F [B7a(i), 1-((1R,1′R,3r,3′R,5S,5′S)-[3,9′-bi(9′-azabicyclo[3.3.1]nonan)]-3′-yl)-3-(4-amino-5-fluoro-2-oxopyrimidin-1(2H)-yl)quinoxalin-2(1H)-one] | > 20 µM
O=C(O)Cn1c(-c2nc3ccccc3n([C@H]3C[C@H]4CCC[C@@H](C3)N4C3CCCCCCCCC3)c2=O)cccc1=O [BB1c(iii), 2-(6-(4-((1R,3r,5S)-9-cyclodecyl-9-azabicyclo[3.3.1]nonan-3-yl)-3-oxo-3,4-dihydroquinoxalin-2-yl)-2-oxopyridin-1(2H)-yl)acetic acid] | > 20 µM
O=c1c(N2CCNCC2)nc2ccccc2n1C1CCN(C2CCCCCCC2)CC1 [CC10, reference compound] | < 1 µM
O=C1CN(c2nc3ccccc3n(C3CCN(C4CCCCCCC4)CC3)c2=O)CCN1 [CC18, reference compound] | < 1 µM
NC1CCN(c2nc3ccccc3n(C3CCN(C4CCCCCCC4)CC3)c2=O)CC1 [CC22, reference compound] | 1 µM
N[C@H]1CCN(c2nc3ccccc3n(C3CCN(C4CCCCCCC4)CC3)c2=O)C1 [CC39, reference compound] | < 1 µM
N[C@@H]1CCN(c2nc3ccccc3n(C3CCN(C4CCCCCCC4)CC3)c2=O)C1 [CC51, reference compound] | < 1 µM
N[C@@H]1CCN(c2nc3ccccc3n([C@H]3C[C@H]4CC[C@@H](C3)N4C3CCCCCCC3)c2=O)C1 [CC101, reference compound] | < 1 µM
O=C1CCN(c2nc3ccccc3n(C3CCN(C4CCCCCCC4)CC3)c2=O)N1 [CC119, reference compound] | > 20 µM
O=C(O)CN1CCN(c2nc3ccccc3n([C@H]3C[C@H]4CC[C@@H](C3)N4C3CCCCCCC3)c2=O)CC1 [CC337, reference compound] | 13 µM
O=c1[nH]c(=O)n(-c2nc3ccccc3n([C@H]3C[C@H]4CCC[C@@H](C3)N4[C@H]3C[C@@H]4CCC[C@@H](C4)C3)c2=O)cc1Br [Compound B16a, 1-(4-((1R,1′R,3r,3R,5S,5′S)-[3,9′-bi(9′-azabicyclo[3.3.1]nonan)]-3′-yl)-3-oxo-3,4-dihydroquinoxalin-2-yl)-5-bromopyrimidine-2,4(1H,3H)-dione] | > 20 µM
C[C@@H]1C[C@@H]2C[C@H](C1)C[C@@H](N1[C@@H]3CCC[C@H]1C[C@@H](n1c(=O)c(-n4ncc(=O)[nH]c4=O)nc4ccccc41)C3)C2 [Compound B34a, 2-(4-((1R,1′R,3r,3′R,5S,5′S,7S)-7-methyl-[3,9′-bi(9′-azabicyclo[3.3.1]nonan)]-3′-yl)-3-oxo-3,4-dihydroquinoxalin-2-yl)-1,2,4-triazine-3,5(2H,4H)-dione] | > 20 µM
C[C@@H]1C[C@@H]2C[C@H](C1)C[C@@H](N1[C@@H]3CCC[C@H]1C[C@@H](n1c(=O)c(N4C(=O)NC(C)(C)C4=O)nc4ccccc41)C3)C2 [Compound B47a] | > 20 µM
O=c1cnn(-c2nc3ccccc3n([C@H]3C[C@H]4CC[C@@H](C3)N4[C@@H]3C[C@@H]4CCCC[C@@H](C4)C3)c2=O)c(=O)[nH]1 [Compound N9b, 2-(4-((1R,3R,5S)-8-((1R,6S,8s)-bicyclo[4.3.1]decan-8-yl)-8-azabicyclo[3.2.1]octan-3-yl)-3-oxo-3,4-dihydroquinoxalin-2-yl)-1,2,4-triazine-3,5(2H,4H)-dione] | > 20 µM
Cc1nn(-c2nc3ccccc3n([C@H]3C[C@H]4CCC[C@@H](C3)N4[C@@H]3C[C@@H]4CCCC[C@@H](C4)C3)c2=O)c(=O)[nH]c1=O [Compound O10b, 2-(4-((1R,3R,5 S)-9-((1R,6S,8s)-bicyclo[4.3.1]decan-8-yl)-9-azabicyclo[3.3.1]nonan-3-yl)-3-oxo-3,4-dihydroquinoxalin-2-yl)-6-methyl-1,2,4-triazine-3,5(2H,4H)-dione] | > 20 µM
CC1(C)NC(=O)N(c2nc3ccccc3n([C@H]3C[C@H]4CCC[C@@H](C3)N4[C@@H]3C[C@@H]4CCCC[C@@H](C4)C3)c2=O)C1=O [Compound O22b, 3-(4-((1R,3R,5S)-9-((1R,6S,8s)-bicyclo[4.3.1]decan-8-yl)-9-azabicyclo[3.3.1]nonan-3-yl)-3-oxo-3,4-dihydroquinoxalin-2-yl)-5,5-dimethylimidazolidine-2,4-dione] | > 20 µM
O=C(O)Cn1cc(-c2nc3ccccc3n([C@H]3C[C@H]4CCC[C@@H](C3)N4[C@H]3C[C@@H]4CCC[C@@H](C4)C3)c2=O)ccc1=O [Compound U007, 2-(5-(4-((1R,1′R,3r,3′R,5S,5′S)-[3,9′-bi(9′-azabicyclo[3.3.1]nonan)]-3′-yl)-3-oxo-3,4-dihydroquinoxalin-2-yl)-2-oxopyridin-1(2H)-yl)acetic acid] | > 20 µM
O=C(O)Cn1ccc(-c2nc3ccccc3n([C@H]3C[C@H]4CCC[C@@H](C3)N4[C@H]3C[C@@H]4CCC[C@@H](C4)C3)c2=O)cc1=O [Compound U010, 2-(4-(4-((1R,1′R,3r,3R,5S,5′S)-[3,9′-bi(9′-azabicyclo[3.3.1]nonan)]-3′-yl)-3-oxo-3,4-dihydroquinoxalin-2-yl)-2-oxopyridin-1(2H)-yl)acetic acid] | > 20 µM
O=C(O)c1cc(-c2nc3ccccc3n([C@H]3C[C@H]4CCC[C@@H](C3)N4[C@@H]3C[C@@H]4CCCC[C@@H](C4)C3)c2=O)c[nH]c1=O [Compound U043, 5-(4-((1R,3R,5S)-9-((1R,6S,8s)-bicyclo[4.3.1]decan-8-yl)-9-azabicyclo[3.3.1]nonan-3-yl)-3-oxo-3,4-dihydroquinoxalin-2-yl)-2-oxo-1,2-dihydropyridine-3-carboxylic acid] | > 20 µM
C[C@@H]1C[C@@H]2C[C@H](C1)C[C@@H](N1[C@@H]3CCC[C@H]1C[C@@H](n1c(=O)c(-c4c[nH]c(=O)cn4)nc4ccccc41)C3)C2 [Compound U052, 1-((1R,1′R,3r,3′R,5S,5′S,7S)-7-methyl-[3,9′-bi(9′-azabicyclo[3.3.1]nonan)]-3′-yl)-3-(5-oxo-4,5-dihydropyrazin-2-yl)quinoxalin-2(1H)-one] | > 20 µM
C[C@@H]1C[C@@H]2C[C@H](C1)C[C@@H](N1[C@@H]3CCC[C@H]1C[C@@H](n1c(=O)c(-c4ccc(=O)[nH]c4)nc4ccccc41)C3)C2 [Compound U060, 1-((1R,1′R,3r,3′R,5S,5′S,7S)-7-methyl-[3,9′-bi(9′-azabicyclo[3.3.1]nonan)]-3′-yl)-3-(6-oxo-1,6-dihydropyridin-3-yl)quinoxalin-2(1H)-one] | > 20 µM
C[C@@H]1C[C@@H]2C[C@H](C1)C[C@@H](N1[C@@H]3CCC[C@H]1C[C@@H](n1c(=O)c(-c4c[nH]c(=O)c(C(N)=O)c4)nc4ccccc41)C3)C2 [Compound U063, 5-(4-((1R,1′R,3r,3′R,5S,5′S,7S)-7-methyl-[3,9′-bi(9′-azabicyclo[3.3.1]nonan)]-3′-yl)-3-oxo-3,4-dihydroquinoxalin-2-yl)-2-oxo-1,2-dihydropyridine-3-carboxamide] | 7.2 µM
C[C@@H]1C[C@@H]2C[C@H](C1)C[C@@H](N1[C@@H]3CCC[C@H]1C[C@@H](n1c(=O)c(-c4c[nH]c(=O)c(C(=O)O)c4)nc4ccccc41)C3)C2 [Compound U064, 5-(4-((1R,1′R,3r,3′R,5S,5′S,7S)-7-methyl-[3,9′-bi(9′-azabicyclo[3.3.1]nonan)]-3′-yl)-3-oxo-3,4-dihydroquinoxalin-2-yl)-2-oxo-1,2-dihydropyridine-3-carboxylic acid] | > 20 µM
Cc1cc(=O)[nH]c(=O)n1-c1nc2ccccc2n([C@H]2C[C@H]3CCC[C@@H](C2)N3[C@H]2C[C@@H]3CCC[C@@H](C3)C2)c1=O [Compound U065, 1-(4-((1R,1R,3r,3′R,5S,5′S)-[3,9′-bi(9′-azabicyclo[3.3.1]nonan)]-3′-yl)-3-oxo-3,4-dihydroquinoxalin-2-yl)-6-methylpyrimidine-2,4(1H,3H)-dione] | > 20 µM
Nc1ccn(-c2nc3ccccc3n([C@H]3C[C@H]4CC[C@@H](C3)N4[C@@H]3C[C@@H]4CCCC[C@@H](C4)C3)c2=O)c(=O)n1 [Compound U066, 3-(4-amino-2-oxopyrimidin-1(2H)-yl)-1-((1R,3R,5S)-8-((1R,6S,8s)-bicyclo[4.3.1]decan-8-yl)-8-azabicyclo[3.2.1]octan-3-yl)quinoxalin-2(1H)-one] | > 20 µM
Nc1nc(=O)n(-c2nc3ccccc3n([C@H]3C[C@H]4CCC[C@@H](C3)N4[C@@H]3C[C@@H]4CCCC[C@@H](C4)C3)c2=O)cc1F [Compound U067] | > 20 µM
O=C(O)Cn1c(-c2nc3ccccc3n([C@H]3C[C@H]4CC[C@@H](C3)N4[C@@H]3C[C@@H]4CCCC[C@@H](C4)C3)c2=O)cccc1=O [DD1b(iii), 2-(6-(4-((1R,3R,5S)-8-((1R,6S,8s)-bicyclo[4.3.1]decan-8-yl)-8-azabicyclo[3.2.1]octan-3-yl)-3-oxo-3,4-dihydroquinoxalin-2-yl)-2-oxopyridin-1(2H)-yl)acetic acid] | > 20 µM
O=C(O)Cn1c(-c2nc3ccccc3n([C@H]3C[C@H]4CCC[C@@H](C3)N4[C@@H]3C[C@@H]4CCCC[C@@H](C4)C3)c2=O)cccc1=O [EE1b(iii), 2-(6-(4-((1R,3R,5S)-9-((1R,6S,8s)-bicyclo[4.3.1]decan-8-yl)-9-azabicyclo[3.3.1]nonan-3-yl)-3-oxo-3,4-dihydroquinoxalin-2-yl)-2-oxopyridin-1(2H)-yl)acetic acid] | > 20 µM
O=c1[nH]nc(-c2nc3ccccc3n([C@H]3C[C@H]4CCC[C@@H](C3)N4[C@@H]3C[C@@H]4CCCC[C@@H](C4)C3)c2=O)[nH]1 [EE6b(i)(i), 1-((1R,3R,5S)-9-((1R,6S,8s)-bicyclo[4.3.1]decan-8-yl)-9-azabicyclo[3.3.1]nonan-3-yl)-3-(5-oxo-4,5-dihydro-1H-1,2,4-triazol-3-yl)quinoxalin-2(1H)-one] | > 20 µM
O=C(O)Cn1c(-c2nc3ccccc3n([C@H]3C[C@H]4CC[C@@H](C3)N4[C@H]3C[C@@H]4CCC[C@@H](C4)C3)c2=O)cccc1=O [Q1a(iii), 2-(6-(4-((1R,3R,5S)-8-((1R,3r,5S)-bicyclo[3.3.1]nonan-3-yl)-8-azabicyclo[3.2.1]octan-3-yl)-3-oxo-3,4-dihydroquinoxalin-2-yl)-2-oxopyridin-1(2H)-yl)acetic acid] | > 20 µM
